According to patent US20190337924A1, “SUBSTITUTED HYDANTOIN AND THIOHYDANTOIN DERIVATIVES AS ANDROGEN RECEPTOR ANTAGONISTS” (Janssen Pharmaceutica NV, priority 2016, published 2019):
Structures can show the parent of a compound that is named as a salt. Where two headings read alike, the source gives them in different places.

Columns and labels:
[1] = target: T1, F876L mutant Androgen Receptor (AR-F876L) (Homo sapiens, UniProt P10275, F877L); test: AR reporter assay, LNCaP-AR-F876L ANT (antagonist mode); type: cell-based; conditions: for Emax: read-out: LNCaP-AR-F876L ANT MAX % Inh
T1 construct: expressed in transfected cells; host or cells: LNCaP
T1 sequence (P10275 1-920 F877L): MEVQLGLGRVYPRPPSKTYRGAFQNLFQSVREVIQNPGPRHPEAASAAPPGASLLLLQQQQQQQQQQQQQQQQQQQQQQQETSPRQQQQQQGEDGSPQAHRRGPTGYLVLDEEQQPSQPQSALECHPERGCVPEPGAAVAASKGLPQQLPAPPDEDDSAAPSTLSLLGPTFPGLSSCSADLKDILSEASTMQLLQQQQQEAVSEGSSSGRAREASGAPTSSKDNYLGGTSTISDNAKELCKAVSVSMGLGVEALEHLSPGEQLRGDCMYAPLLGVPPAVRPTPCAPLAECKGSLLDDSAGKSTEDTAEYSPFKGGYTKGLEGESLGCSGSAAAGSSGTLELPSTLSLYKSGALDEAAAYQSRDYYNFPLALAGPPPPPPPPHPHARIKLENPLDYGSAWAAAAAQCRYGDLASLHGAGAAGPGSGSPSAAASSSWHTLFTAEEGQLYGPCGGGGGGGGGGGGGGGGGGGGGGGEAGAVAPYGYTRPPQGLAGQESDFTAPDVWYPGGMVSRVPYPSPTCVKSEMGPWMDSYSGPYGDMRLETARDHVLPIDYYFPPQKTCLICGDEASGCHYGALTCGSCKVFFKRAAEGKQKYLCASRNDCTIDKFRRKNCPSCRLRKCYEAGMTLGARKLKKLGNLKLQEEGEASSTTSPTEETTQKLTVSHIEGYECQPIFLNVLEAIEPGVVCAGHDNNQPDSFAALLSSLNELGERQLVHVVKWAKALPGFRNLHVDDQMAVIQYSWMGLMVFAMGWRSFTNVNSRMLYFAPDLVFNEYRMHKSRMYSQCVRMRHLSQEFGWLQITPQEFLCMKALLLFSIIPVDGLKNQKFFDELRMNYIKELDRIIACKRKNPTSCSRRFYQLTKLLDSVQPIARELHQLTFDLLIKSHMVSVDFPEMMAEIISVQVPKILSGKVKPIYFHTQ
Excerpt: (§1) LNCaP AR (cs) and LNCaP F876L luciferase cell lines were generated by transduction of each cell line (description of cell line generation Joseph J D, Lu N, Qian J, Sensintaffar J, Shao G, Brigham D, Moon M, Maneval E C, Chen I, Darimont B, Hager J H. A clinically relevant androgen receptor mutation confers resistance to second-generation antiandrogens enzalutamide and ARN-509. Cancer Discov 2013; 3:1020-1029) with an Androgen Response Element Firefly Luciferase lentiviral construct at an MOI (multiplicity of infection) of 50 following the manufacturer's instructions (Qiagen). A stable pooled-population cell line was generated using puromycin (Life Technologies) selection at 1:10,000 v/v. The protocol below was used for both cell lines and for testing of the compounds of Formula (I) of the present invention.
(§2) LNCaP cells were grown to about 80% confluence, media removed and cells rinsed in Hank's balanced salt solution prior to separation from the plate with 0.05% Trypsin EDTA. Cells were lifted and trypsin negated in complete CSS (charcoal stripped serum) culture media. CSS was maintained on cells for 24 h prior to assay, at which time 5,000 cells/[…] were seeded in Greiner 384 well White/White Tissue Culture Treated Plates and incubated for a further 1-2 hours at 37° C., 5% CO2, prior to addition of 10 μL of 4× Test Compounds (compounds described herein) or Assay Controls (all diluted in complete media containing 10% css). A further 10 μL of 4× R-1881 Agonist Challenge (antagonist assay) or Buffer (agonist assay) was then added (all diluted in complete media containing 10% css). Agonist challenge was at 400 pM for WT assay and 600 pM for F876L assay. Plates containing cells and compounds herein were incubated for a further 20-24 hours at 37° C., 5% CO2 before addition of 40 μL/well of Steady-Glo Luciferase Assay System Reagent (Promega#E2520). After 1 h, plates were read for luminescence on a BMG Pherastar.
Agonist challenge: R-1881 (Metribolone)—Agonist
Antagonist control (low control): 5-(5-(4-((1-Methylpiperidin-4-yl)oxy)phenyl)-8-oxo-6-thioxo-5,7-diazaspiro[3.4]octan-7-yl)-3-(trifluoromethyl)picolinonitrile (WO 2011/103202, EXAMPLE 19, Compound 129, CAS #1332390-06-3).
(1−(Sample RLU−Ave Low Control RLU[10 μM Antagonist Control])/(Ave High Control RLU [400 pM R-1881]−Ave Low Control RLU[10 μM Antagonist Control]))*100.
(§3) EC/IC50 calculations were achieved utilizing calculated RLU data and data fitting macros. Data were fit using least-squares methods to the following formula: […]
(§4) As used herein: • pIC50 is defined as −Log10(IC50 expressed in [Molar]). • pEC50 is defined as −Log10(EC50 expressed in [Molar]). • MAX % Inh is defined as the maximum % inhibition of R1881 control response observed for a compound over the tested concentration range. • MAX % Stim is defined as the maximum % stimulation (agonist response) observed for a compound over the tested concentration range. • LNCaP-AR-wt ANT refers to the reporter assay using LNCaP cells stably transfected with the Androgen Response Element Firefly Luciferase lentiviral construct and wild-type Androgen Receptor (AR-wt) in Antagonist mode. • LNCaP-AR-wt AG refers to the reporter assay using LNCaP cells stably transfected with the Androgen Response Element Firefly Luciferase lentiviral construct and wild-type Androgen Receptor (AR-wt) in Agonist mode. • LNCaP-AR-F876L ANT refers to the reporter assay using LNCaP cells stably transfected with the Androgen Response Element Firefly Luciferase lentiviral construct and F876L mutant Androgen Receptor (AR-F876L) in Antagonist mode. • LNCaP-AR-F876L AG refers to the reporter assay using LNCaP cells stably transfected with the Androgen Response Element Firefly Luciferase lentiviral construct and F876L mutant Androgen Receptor (AR-F876L) in Agonist mode.

[2] = target: T1, F876L mutant Androgen Receptor (AR-F876L); test: AR reporter assay, LNCaP-AR-F876L AG (agonist mode); type: cell-based; conditions: for Emax: read-out: LNCaP-AR-F876L AG MAX % Stim
Excerpt: as §1, §2
((Sample RLU−Ave Low Control RLU[DMSO/Buffer])/(Ave High Control RLU [1 μM R-1881]—Ave Low Control RLU[DMSO/Buffer]))*100.
as §3, §4

[3] = antagonist mode, 600 pM R-1881 challenge, luciferase reporter, -Log10(IC50 in Molar), read-out: LNCaP-AR-F876L ANT pIC50 (converted)
[4] = agonist mode (buffer, no R-1881), -Log10(EC50 in Molar), read-out: LNCaP-AR-F876L AG pEC50 (converted)

| Compound | IC50 [1, 3] | Emax [1] | EC50 [2] | Emax [2] | EC50 [2, 4] | IC50 [1] |
| --- | --- | --- | --- | --- | --- | --- |
| N#Cc1ccc(N2C(=O)C3(CCC3)N(c3cnc(OC4CCNCC4)nc3)C2=S)cc1C(F)(F)F [Compound 15, 4-(8-Oxo-5-(2-(piperidin-4-yloxy)pyrimidin-5-yl)-6-thioxo-5,7-diazaspiro[3.4]octan-7-yl)-2-(trifluoromethyl)benzonitrile] | 107 nM | 101% | > 15100 nM | -0.1% | – | – |
| CN1CCC(Oc2ncc(N3C(=S)N(c4ccc(C#N)c(C(F)(F)F)c4)C(=O)C34CCC4)cn2)CC1 [Compound 16, 4-(5-(2-((1-Methylpiperidin-4-yl)oxy)pyrimidin-5-yl)-8-oxo-6-thioxo-5,7-diazaspiro[3.4]octan-7-yl)-2-(trifluoromethyl)benzonitrile] | 166 nM | 101% | > 15100 nM | 0.1% | – | – |
| Cc1cc(N2C(=O)C3(CCC3)N(c3ccc(OC4CCN(C)CC4)cc3)C2=S)ccc1C#N [Compound 17, 2-Methyl-4-(5-(4-((1-methylpiperidin-4-yl)oxy)phenyl)-8-oxo-6-thioxo-5,7-diazaspiro[3.4]octan-7-yl)benzonitrile] | 129 nM | 101% | – | 0.2% | > 15100 nM | – |
| Cc1cc(N2C(=O)C3(CCC3)N(c3ccc(OC4CCN(C)CC4)nc3)C2=S)ccc1C#N [Compound 18, 2-Methyl-4-(5-(6-((1-methylpiperidin-4-yl)oxy)pyridin-3-yl)-8-oxo-6-thioxo-5,7-diazaspiro[3.4]octan-7-yl)benzonitrile] | 282 nM | 99.8% | – | 2.6% | > 15100 nM | – |
| COc1cc(N2C(=O)C3(CCC3)N(c3ccc(OC4CCN(C)CC4)cc3)C2=S)ccc1C#N [Compound 19, 2-Methoxy-4-(5-(4-((1-methylpiperidin-4-yl)oxy)phenyl)-8-oxo-6-thioxo-5,7-diazaspiro[3.4]octan-7-yl)benzonitrile] | – | 101% | > 15100 nM | 0.3% | – | 83.2 nM |
| COc1cc(N2C(=O)C3(CCC3)N(c3ccc(OC4CCN(C)CC4)nc3)C2=S)ccc1C#N [Compound 20, 2-Methoxy-4-(5-(6-((1-methylpiperidin-4-yl)oxy)pyridin-3-yl)-8-oxo-6-thioxo-5,7-diazaspiro[3.4]octan-7-yl)benzonitrile] | 145 nM | 100% | > 15100 nM | 0.3% | – | – |
| N#Cc1ccc(N2C(=O)C3(CCC3)N(c3ccc(OC4CCNCC4)cc3)C2=S)cc1Cl [Compound 21, 2-Chloro-4-(8-oxo-5-(4-(piperidin-4-yloxy)phenyl)-6-thioxo-5,7-diazaspiro[3.4]octan-7-yl)benzonitrile] | 200 nM | 104% | > 15100 nM | 0.2% | – | – |
| CN1CCC(Oc2ccc(N3C(=S)N(c4ccc(C#N)c(Cl)c4)C(=O)C34CCC4)cc2)CC1 [Compound 22, 2-Chloro-4-(5-(4-((1-methylpiperidin-4-yl)oxy)phenyl)-8-oxo-6-thioxo-5,7-diazaspiro[3.4]octan-7-yl)benzonitrile] | – | 99.5% | > 15100 nM | 0% | – | 112 nM |
| N#Cc1ccc(N2C(=O)C3(CCC3)N(c3ccc(OC4CCNCC4)nc3)C2=S)cc1Cl [Compound 23, 2-Chloro-4-(8-oxo-5-(6-(piperidin-4-yloxy)pyridin-3-yl)-6-thioxo-5,7-diazaspiro[3.4]octan-7-yl)benzonitrile hydrochloride] | – | 103% | > 15100 nM | 0.3% | – | 50.1 nM |
| CN1CCC(Oc2ccc(N3C(=S)N(c4ccc(C#N)c(Cl)c4)C(=O)C34CCC4)cn2)CC1 [Compound 24, 2-Chloro-4-(5-(6-((1-methylpiperidin-4-yl)oxy)pyridin-3-yl)-8-oxo-6-thioxo-5,7-diazaspiro[3.4]octan-7-yl)benzonitrile hydrochloride] | – | 99.8% | > 15100 nM | 0.1% | – | 77.6 nM |
